# Data published in patent US6465615B1 (AstraZeneca AB, priority 2001, dated 2002).
# Entries after “also recorded” stand apart in the source; their conditions may differ.
# Experiments:
# [1] = Stability / hygroscopicity at ambient room temperature and humidity; type: physicochemical; details: for stability at standard room temperature and humidity (ambient conditions): Preparation 3 after about 5 hours standing, TGA
# Protocol: The partially dehydrated material was allowed to stand for about 5 hours.
# [2] = Solubility measured visually; details: relative to crystalline lisinopril dihydrate (Zestril)
# [3] = cited from earlier work
smiles,measurement,setting,value
"NCCCC[C@H](N[C@@H](CCc1ccccc1)C(=O)O)C(=O)N1CCC[C@H]1C(=O)O [monohydrate lisinopril form 2, 1-(N^2-[(S)-1-carboxy-3-phenylpropyl]-L-lysyl)-L-proline]",stability at standard room temperature and humidity (ambient conditions),[1],stable
same,solubility,physchem,400 to 450 mg/mL
same,solubility compared with lisinopril dihydrate,[2],far greater solubility; also recorded: much more soluble; also recorded: substantially more soluble
NCCCC[C@H](N[C@@H](CCc1ccccc1)C(=O)O)C(=O)N1CCC[C@H]1C(=O)O.O [monohydrate lisinopril form 1],stability at standard room temperature and humidity (ambient conditions),[1]; listed as form 1,stable
NCCCC[C@H](N[C@@H](CCc1ccccc1)C(=O)O)C(=O)N1CCC[C@H]1C(=O)O.O [Preparation 3],stability at standard room temperature and humidity (ambient conditions),[1],not a stable monohydrate
same,hygroscopicity,"[1]; crystals returned to room temperature after heating, evolved water reabsorbed from atmosphere",strongly hygroscopic
NCCCC[C@H](N[C@@H](CCc1ccccc1)C(=O)O)C(=O)N1CCC[C@H]1C(=O)O [lisinopril],time to peak serum concentrations,[3]; following oral administration,≤ 7 h
same,effective half-life of accumulation,[3]; multiple dosing,about 12.6 hours
